The source of these data is patent publication US8114865B2, “Indazole derivatives as kinase inhibitors for the treatment of cancer” (Nerviano Medical Sciences S.R.L., priority 2006, dated 2012).

In one assay the target is T1, ALK (Homo sapiens, UniProt Q9UM73).
T1 construct: ALK cytoplasmic domain, corresponding to residues 1060-1620; made in house; host or cells: Sf21 insect cells (baculovirus)
The assay is described as follows: Biochemical assay for inhibitors of ALK kinase activity. An excerpt:
ALK cytoplasmic domain, corresponding to residues 1060-1620 (the numbers of the amino acid residues refer to the Genbank accession number NP 004295.2) was PCR amplified from a human testis cDNA library.
For cloning purposes, the oligonucleotides included attB sites in order to obtain an attB-flanked PCR product suitable for cloning using the Gateway technology (Invitrogen). Furthermore, for purification purposes, forward primer included a PreScission cleavage site (Amersham Biosciences). The resulting PCR product was cloned in the baculovirus expression vector pVL1393 (Invitrogen), Gateway-modified. For expression and purification purposes, a GST tag was added N-terminal to the ALK cytoplasmic domain. Cloning was performed according to the protocols described in the Gateway manual (Invitrogen).
Baculovirus was generated by cotransfecting Sf9 insect cells with expression vector and the viral DNA using the BaculoGold™ transfection kit (Pharmingen).
Recombinant protein was produced by infecting Sf21 insect cells at the density of 1×10^6 cells/mL with 30 mL viral supernatant per billion cells with shaking at 27° C. After 48 hours of infections the cells were recovered, pelleted and frozen at −80° C.
Cells were resuspended in lysis buffer (Tris-HCl 50 mM pH8, NaCl 150 mM, CHAPS 0.2%, DTT 20 mM, glycerol 20%, “Complete” protease inhibitor cocktail (Roche Diagnostics), Na3VO4 1 mM and lysed by liquid extrusion with a Gaulin homogenizer (Niro Soavi Italy). The lysate was cleared by centrifugation at 20000 g for 30 minutes and loaded on a Glutathione Sepharose 4B (Amersham Biosciences) column.
After extensive wash, recombinant protein was eluted with 10 mM Glutathione in 100 mM Tris-HCl pH8, 10% glycerol.
Affinity purified GST-ALK was loaded on a Heparin Sepharose™ FF (Amersham Biosciences) column and eluted with 50 mM NaCl, 25 mM TRIS pH 7.5, 2 mM DTT, 20% glycerol.
The eluted fractions were pooled and dialyzed against 150 mM NaCl, 50 mM Tris-HCl pH 7.4, 2 mM DTT, 20% glycerol.
The in vitro kinase inhibition assay was conducted in the same way as described for IGF-1R. […]

For another assay, the target named is IGF-1R (Homo sapiens, UniProt P08069). Put plainly: Biochemical assay for inhibitors of IGF-1R kinase activity (trans-phosphorylation, Dowex). Also on record: amino acid residues 960-1367 of precursor protein; made in house; host or cells: H5 insect cells (baculovirus; virus generated in Sf21). As to conditions: read-out: IGF1R IC50. The method, then: Human cDNA was used as template for amplification by polymerase chain reaction (PCR) of the predicted cytoplasmic portion of IGF-1R (amino acid residues 960-1367 of precursor protein; see NCBI Entrez Protein Accession #P08069) which includes the entire kinase domain. PCR was conducted using the forward primer sequence 5′-[…]-3′ [SEQ ID NO: 1] and the reverse primer sequence 5′-[…]-3′[SEQ ID NO: 2].
In order to facilitate subsequent cloning steps, both primers comprise a BamHI restriction endonuclease site sequence. This PCR product was cloned in frame using BamHI sticky ends into a transfer vector for the baculovirus expression system, pVL1392 (Pharmingen), previously modified by insertion into the pVL1392 multiple cloning site of sequences encoding Glutathione S-transferase (GST) fusion protein, PreScission protease cleavage site and partial MCS cassette derived from the pGex-6P plasmid (Amersham BioSciences). Insertion of the IGF-1R PCR product described above into the pGex-6P derived BamHI site of the modified pVL1392 vector results in an open reading frame corresponding to the pGEX-6P GST protein and PreScission peptide fused with the human IGF-1R cytoplasmic domain. In order to obtain fusion protein, Sf21 insect cells (Invitrogen) are cotransfected with 2 microg of purified plasmid and 1 microg of virus DNA (BaculoGold™ Transfection Kit, Pharmingen), as described in the Baculovirus Instruction manual (Pharmingen). A first amplification of the virus is performed using 600 microL of cotransfected virus on 6×10^6 Sf21 in a monolayer culture, in 12 mL of medium (TNM-FH Grace's medium—Pharmingen). After 3 days the medium is collected, centrifuged and transferred to a sterile tube. A second amplification is prepared with the same method using 2 mL on 3×10^7 cells, diluted in 40 mL of medium. For the third amplification of virus, 1 mL of supernatant from the second round are used per 3×10^7 cells diluted in 40 mL of medium. […]
The inhibitory activity of putative kinase inhibitors and the potency of selected compounds were determined using a trans-phosphorylation assay. […]

Molecules are shown by their SMILES.

Chain of IGF-1R (P08069 960-1367): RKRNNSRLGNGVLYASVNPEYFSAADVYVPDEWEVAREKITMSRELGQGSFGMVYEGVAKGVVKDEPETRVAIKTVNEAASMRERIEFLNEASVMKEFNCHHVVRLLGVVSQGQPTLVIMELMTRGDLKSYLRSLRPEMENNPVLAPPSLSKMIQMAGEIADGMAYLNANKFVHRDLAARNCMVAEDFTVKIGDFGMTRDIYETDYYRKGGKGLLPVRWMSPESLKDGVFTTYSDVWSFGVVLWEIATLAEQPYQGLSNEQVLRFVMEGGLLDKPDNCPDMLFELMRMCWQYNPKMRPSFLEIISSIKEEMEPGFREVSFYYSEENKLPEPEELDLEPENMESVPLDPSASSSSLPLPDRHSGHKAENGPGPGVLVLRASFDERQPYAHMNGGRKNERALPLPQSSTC
T1 sequence (Q9UM73 1060-1620): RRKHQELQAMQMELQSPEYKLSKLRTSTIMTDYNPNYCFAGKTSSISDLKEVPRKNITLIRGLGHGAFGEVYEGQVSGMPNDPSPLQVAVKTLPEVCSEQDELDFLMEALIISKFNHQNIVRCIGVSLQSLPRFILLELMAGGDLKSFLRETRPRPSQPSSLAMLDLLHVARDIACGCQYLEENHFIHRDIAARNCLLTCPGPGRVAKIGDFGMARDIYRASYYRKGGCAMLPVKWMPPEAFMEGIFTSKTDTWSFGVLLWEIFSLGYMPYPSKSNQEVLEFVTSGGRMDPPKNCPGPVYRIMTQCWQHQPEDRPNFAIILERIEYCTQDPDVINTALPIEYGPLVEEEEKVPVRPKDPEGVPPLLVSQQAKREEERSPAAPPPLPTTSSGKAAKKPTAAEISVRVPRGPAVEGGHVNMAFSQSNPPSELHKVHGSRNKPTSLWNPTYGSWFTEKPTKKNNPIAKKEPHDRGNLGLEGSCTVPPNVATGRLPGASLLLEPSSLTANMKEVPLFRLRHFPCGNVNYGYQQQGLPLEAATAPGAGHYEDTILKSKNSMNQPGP

As a reminder, the IC50 is the point on the concentration scale where inhibition reaches its midpoint. As for `CN1CCN(c2ccc(C(=O)Nc3n[nH]c4ccc(S(=O)(=O)c5ccccc5)cc34)cc2)CC1` [Compound 1, N-(5-Benzenesulfonyl-1H-indazol-3-yl)-4-(4-methyl-piperazin-1-yl)-benzamide], the values for the IC50 at ALK and on IGF-1R were 340 nM and 850 nM, respectively.
On the same counts, the results for `CN1CCN(c2ccc(C(=O)Nc3n[nH]c4ccc(S(=O)(=O)c5ccccc5)cc34)c(NC(=O)c3ccc[nH]3)c2)CC1` [Compound 33, 1H-pyrrole-2-carboxylic acid [2-(5-benzenesulfonyl-1H-indazol-3-ylcarbamoyl)-5-(4-methyl-piperazin-1-yl)-phenyl]amide] are 34 nM and 36 nM.
On the same counts, the results for `CN1CCN(c2ccc(C(=O)Nc3n[nH]c4ccc(S(=O)(=O)c5ccccc5)cc34)c(NC(=O)[C@@H]3CCCO3)c2)CC1` [Compound 36, (S)-Tetrahydro-furan-2-carboxylic acid [2-(5-benzenesulfonyl-1H-indazol-3-ylcarbamoyl)-5-(4-methyl-piperazin-1-yl)-phenyl]-amide] are 170 nM and 230 nM.
